{
  "source": "patent US20070059785A1",
  "about": "“Biomarkers in cancer” (SMITHKLINE BEECHAM CORPORATION, priority 2003, published 2007)",
  "key": {"Erk1/2 [1]": {"system": "Erk1/2", "assay": "Western blot of p-Erk1/2 in HN5 cells", "type": "cell-based, human", "details": "for p-Erk1/2: HN5, exponentially growing, 72 h", "method": "The erbB2 overexpressing human breast adenocarcinoma cell line, BT474, was obtained from the American Type Culture Collection (Rockville, M, USA). […] The EGFR overexpressing LICR-LON-HN5 head and neck carcinoma cell line, HN5, was kindly provided by Helmout Modjtahedi at the Institute of Cancer Research, Surrey, U.K.\nFor IP Western blots, equivalent amounts of protein were precleared with Protein G Plus/Protein A agarose overnight at 4° C. Precleared lysates were then incubated overnight at 4° C. with specific antibodies. Immune complexes were precipitated with Protein G Plus/Protein A agarose beads, washed in RIPA buffer and then boiled in sample loading buffer. Steady state levels of total Erk1/2 and activated Erk1/2 (p-Erk) as well as total AKT protein and activated AKT (p-AKT) protein were assessed by Western blot. […] Proteins were transferred to Immobilon-P or nitrocellulose membranes. Efficiency and equal loading of proteins was evaluated by Ponceau S staining. Membranes were blocked for 1 hr in TBS (25 mM Tris-HCl, pH 7.4, 150 mM NaCl, 2.7 mM KCl) containing 4% (w/v) lowfat milk or 3% BSA (w/v). Membranes were then probed with specific antibodies recognizing target proteins. Proteins were visualized with the SUPERSIGNAL® West Femto Maximum sensitivity substrate kit (Pierce).\nCell lysates were prepared and total Erk1/2 and activated Erk1/2 (p-Erk1/2) were assessed by Western blot."}, "HN5 cells": {"system": "HN5 cells", "assay": "Apoptosis and growth of HN5 cells", "type": "cell-based, human", "details": "data not shown"}, "Erk1/2 [2]": {"system": "Erk1/2", "assay": "HN5 tumor xenograft, p-Erk1/2 and total Erk1/2 by Western blot", "type": "in vivo, CD-1 nude mice", "method": "(§1) Total Erk1/2, total AKT, activated Erk1/2 (p-Erk1/2), and activated AKT (p-AKT) were assessed by Western blot loading equal amounts of protein from tumor biopsies.\nHN5 cells were grown in DMEM supplemented with 10% fetal bovine serum, sodium pyruvate and L-glutamine at 37° C. in a 95/5% air/CO2 atmosphere. […] Cells (2×10^6/mouse) in 0.2 ml were injected into the right flank of CD-1 nude mice. Female CD-1 nude mice were acquired from Charles River Laboratories. Mice were maintained in filter-topped cages in an aseptic environment with laminar flow filtered ventilation. […] Tumors were biopsied pre-treatment and 4 hours after the last dose. All animal surgery was conducted under aseptic conditions. For the initial biopsy, mice were anesthetized with isofluorane inhalation. The skin over the tumor was disinfected with iodine. A small hemostat was used to tease away the skin from the tumor, and scissors were used to make a 1 cm incision over the tumor. A scalpel and forceps were used to remove approximately 100 mg of tumor. The tumor was then frozen in liquid nitrogen. Wound clips were used to close the incision. The anesthetized mice were kept warm until they recovered mobility, usually less than 1-2 minutes. For the terminal biopsy, mice were euthanized with CO2 inhalation, and the remainder of the tumor excised. HN5 tumors were placed on dry ice in vials containing cold isopentane, and stored at −80 C prior to study. BT474 tumor samples were fixed for 2-3 hours in phosphatase inhibitor consisting of sodium fluoride and sodium pervanadate in 10% neutral buffered formalin. Following fixative treatment, BT474 samples were washed in water and stored in 70% ethanol prior to study. Cell extracts were prepared by homogenization in RIPA buffer at 4° C.\nas §1"}, "erbB2": {"target": "erbB2 (Homo sapiens, UniProt P04626)", "sequence (P04626 23-1255)": "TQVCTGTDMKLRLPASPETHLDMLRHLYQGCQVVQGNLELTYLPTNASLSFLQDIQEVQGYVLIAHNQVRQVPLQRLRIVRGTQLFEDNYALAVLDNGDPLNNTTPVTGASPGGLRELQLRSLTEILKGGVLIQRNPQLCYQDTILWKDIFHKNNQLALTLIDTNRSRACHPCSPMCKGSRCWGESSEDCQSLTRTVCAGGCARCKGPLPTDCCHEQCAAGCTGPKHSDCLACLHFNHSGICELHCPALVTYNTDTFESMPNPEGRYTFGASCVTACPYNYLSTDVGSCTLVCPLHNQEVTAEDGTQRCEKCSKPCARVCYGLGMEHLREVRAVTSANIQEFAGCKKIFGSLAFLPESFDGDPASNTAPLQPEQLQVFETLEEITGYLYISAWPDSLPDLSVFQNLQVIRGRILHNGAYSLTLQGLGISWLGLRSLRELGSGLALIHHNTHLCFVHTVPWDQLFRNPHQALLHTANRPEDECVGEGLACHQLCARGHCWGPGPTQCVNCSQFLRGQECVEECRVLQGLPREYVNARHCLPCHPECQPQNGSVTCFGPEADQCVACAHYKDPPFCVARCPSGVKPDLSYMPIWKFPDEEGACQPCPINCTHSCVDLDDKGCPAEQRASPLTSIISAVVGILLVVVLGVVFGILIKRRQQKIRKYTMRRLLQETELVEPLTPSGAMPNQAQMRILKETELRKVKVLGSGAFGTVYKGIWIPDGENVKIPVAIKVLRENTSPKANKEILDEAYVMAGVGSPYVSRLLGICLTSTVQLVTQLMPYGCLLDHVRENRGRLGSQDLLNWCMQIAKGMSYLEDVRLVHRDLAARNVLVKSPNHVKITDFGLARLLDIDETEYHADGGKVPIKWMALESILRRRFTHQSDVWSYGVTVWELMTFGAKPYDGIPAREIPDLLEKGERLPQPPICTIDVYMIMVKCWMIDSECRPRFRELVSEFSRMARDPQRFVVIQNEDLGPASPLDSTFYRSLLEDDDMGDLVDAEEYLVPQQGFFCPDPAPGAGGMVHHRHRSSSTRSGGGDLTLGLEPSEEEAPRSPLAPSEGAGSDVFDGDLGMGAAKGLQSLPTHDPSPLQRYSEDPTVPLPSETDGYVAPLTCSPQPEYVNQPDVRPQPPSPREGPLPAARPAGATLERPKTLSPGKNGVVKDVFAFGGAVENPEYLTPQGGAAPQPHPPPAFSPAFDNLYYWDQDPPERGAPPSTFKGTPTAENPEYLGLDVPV", "assay": "Tumor xenografts, activated and total erbB2 by quantitative IHC", "type": "in vivo, mice", "details": "HN5 and BT474 xenografts, 200 mg/kg oral once daily"}, "Erk1/2 [3]": {"system": "Erk1/2", "assay": "Tumor xenografts, phospho-Erk1/2 and total Erk1/2 by quantitative IHC", "type": "in vivo, mice", "details": "data not shown", "source_text": "DAB (Dako) was used as the chromogen.\nInhibition of erbB2/EGFR p-tyr in turn led to the inhibition of downstream activated, phospho-Erk1/2."}, "solid tumors": {"system": "solid tumors", "assay": "Open-label clinical study, clinical response (RECIST)", "type": "in vivo, human"}, "p-ERK": {"system": "p-ERK", "assay": "Antibody staining of p-ERK localization in MCF7/erbB2 cells", "type": "cell-based, human", "details": "10 uM, results not shown"}, "[4]": {"assay": "Plasma concentration in patients", "type": "in vivo, human", "details": "oral once a day"}, "p-Erk1/2": {"system": "p-Erk1/2", "assay": "Clinical tumor biopsies, p-ERK index by quantitative IHC", "details": "patient 364, head and neck cancer, 1600 mg/day, Day 21", "description": "To quantify changes in Erk1/2 activation state, a p-Erk index was established for each biopsy. The p-Erk index was the product of the percentage of cells staining positive for p-Erk1/2 in the tissue section and the OD value for p-Erk1/2 immunoreactivity. Investigators preparing and analyzing tissue sections were blinded to both patient tumor type and response to therapy.\n“pERK index” is calculated by multiplying the percentage of cells staining positive for p-Erk and the optical density (OD) score, ×100;"}, "[5]": {"details": "patients with >70% decrease in pERK index"}},
  "data": [
    {"smiles": "CS(=O)(=O)CCNCc1ccc(-c2ccc3ncnc(Nc4ccc(OCc5cccc(F)c5)c(Cl)c4)c3c2)o1", "note": "[GW572016, N-{3-Chloro-4-[(3-fluorobenzyl)oxy]phenyl}-6-[5-({[2-(methylsulfonyl)ethyl]amino}methyl)-2-furyl]-4-quinazolinamine]", "values": [
      {"measurement": "downstream p-Erk1/2", "setting": "Erk1/2 [1]; HN5, 5 μM, 24 h serum-free, not reversed by EGF", "result": "inhibited"},
      {"measurement": "total Erk1/2 steady state protein levels", "setting": "Erk1/2 [1]; HN5, 72 h, GW572016 0.5 or 1 μM, Herceptin 10 μg/ml", "result": "Neither Herceptin™ nor GW572016 reduced"},
      {"measurement": "p-Erk1/2", "setting": "Erk1/2 [1]; 500 nM", "result": "inhibited"},
      {"measurement": "p-Erk1/2", "setting": "Erk1/2 [1]; 1 μM", "result": "inhibited"},
      {"measurement": "apoptosis", "setting": "HN5 cells", "result": "significant apoptosis was not seen"},
      {"measurement": "cell growth", "setting": "HN5 cells", "result": "growth arrest"},
      {"measurement": "effect on p-Erk1/2", "setting": "Erk1/2 [2]; 10 mg/kg, data not shown", "result": "little effect"},
      {"measurement": "p-Erk1/2 in tumors", "setting": "Erk1/2 [2]; 30 mg/kg/dose", "result": "inhibited"},
      {"measurement": "total steady state Erk1/2 protein levels", "setting": "Erk1/2 [2]; 30 mg/kg/dose", "result": "without affecting"},
      {"measurement": "erbB2 total protein", "setting": "erbB2", "result": "neither EGFR nor erbB2 total protein was affected"},
      {"measurement": "activated erbB2", "setting": "erbB2; data not shown", "result": "inhibition"},
      {"measurement": "p-Erk1/2 levels", "setting": "Erk1/2 [3]", "result": "reduced"},
      {"measurement": "total Erk1/2 protein", "setting": "Erk1/2 [3]", "result": "unaffected"},
      {"measurement": "metastatic subcutaneous nodules", "setting": "solid tumors; patient 361, metastatic breast cancer, 1200 mg/day, Day 21", "result": "almost all of their metastatic subcutaneous nodules had completely regressed"},
      {"measurement": "metastatic lymph node that was sequentially biopsied", "setting": "solid tumors; patient 364, 1600 mg/day, Day 21", "result": "reduced in size"},
      {"measurement": "sensitivity of the patient's tumor to treatment", "setting": "solid tumors; patient 425, inflammatory breast cancer, 1200 mg once per day", "result": "very sensitive"},
      {"measurement": "Partial Response at eight weeks", "setting": "solid tumors; [5]", "result": "Partial Response: 2/5"},
      {"measurement": "Progression at eight weeks", "setting": "solid tumors; [5]", "result": "one and Progression: 1/5"},
      {"measurement": "Stable Disease at eight weeks", "setting": "solid tumors; [5]", "result": "Stable Disease: 2/5"},
      {"measurement": "Partial Response at eight weeks", "setting": "solid tumors; patients with no decrease or increase in pERK index", "result": "Partial Response: 0/3"},
      {"measurement": "intensity of staining for p-ERK in the nucleus vs control cells", "setting": "p-ERK", "result": "less"},
      {"measurement": "time by which steady state plasma concentrations were achieved", "setting": "[4]", "result": "≤ 21", "unit": "days"},
      {"measurement": "decrease in p-Erk1/2", "setting": "p-Erk1/2", "result": "> 90", "unit": "%"}
    ]}
  ]
}
